Results on three compounds are retold here after patent publication US20070244115A1, “Amino-Halogen-Imidazopyridines as Proton Pump Inhibitors” (Alana Pharma AG, priority 2004, published 2007).

The test system of this assay is pentagastrin-stimulated acid secretion of the perfused rat stomach. Nature of the assay: Secretion-inhibiting action on the perfused rat stomach (pentagastrin-stimulated acid secretion). It counts as in vivo. Particulars: anesthetized CD rat, dose 2.2 μmol/kg i.d. (intraduodenal). The text has this:
Testing of the Secretion-Inhibiting Action on the Perfused Rat Stomach
In Table A which follows, the influence of the compounds according to the invention on the pentagastrin-stimulated acid secretion of the perfused rat stomach after intraduodenal administration in vivo is shown.
The abdomen of anesthetized rats (CD rat, female, 200-250 g; 1.5 g/kg i.m. urethane) was opened after tracheotomy by a median upper abdominal incision and a PVC catheter was fixed transorally in the esophagus and another via the pylorus such that the ends of the tubes just projected into the gastric lumen. The catheter leading from the pylorus led outward into the right abdominal wall through a side opening.
After thorough rinsing (about 50-100 ml), warm (37° C.) physiological NaCl solution was continuously passed through the stomach (0.5 ml/min, pH 6.8-6.9; Braun-Unita I). The pH (pH meter 632, glass electrode EA 147; φ=5 mm, Metrohm) and, by titration with a freshly prepared 0.01N NaOH solution to pH 7 (Dosimat 665 Metrohm), the secreted HCl were determined in the effluent in each case collected at an interval of 15 minutes.
The gastric secretion was stimulated by continuous infusion of 1 μg/kg (=1.65 ml/h) of i.v. pentagastrin (left femoral vein) about 30 min after the end of the operation (i.e. after determination of 2 preliminary fractions). The substances to be tested were administered intraduodenally in a 2.5 ml/kg liquid volume 60 min after the start of the continuous pentagastrin infusion.
The body temperature of the animals was kept at a constant 37.8-38° C. by infrared irradiation and heat pads (automatic, stepless control by means of a rectal temperature sensor).
Turning to `COc1ccc2nc([S+]([O-])Cc3nccc(N4CCOCC4)c3Cl)[nH]c2n1` (stereo not drawn) [Example 1, 2-(3Chloro-4-morpholin-4-yl-pyridin-2-ylmethanesulfinyl)-5-methoxy-3H-imidazo[4,5-b]pyridine], the “Inhibition of acid secretion (%)” value is recorded as greater than 50%.

Regarding `COc1ccc2nc([S@@+]([O-])Cc3nccc(N4CCOCC4)c3Cl)[nH]c2n1` [Example 2, (S)-2-(3-Chloro-4-morpholin-4-yl-pyridin-2-ylmethanesulfinyl)-5-methoxy-3H-imidazo[4,5-b]pyridine], the “Inhibition of acid secretion (%)” value was greater than 50%.

On to `COc1ccc2nc([S@+]([O-])Cc3nccc(N4CCOCC4)c3Cl)[nH]c2n1` [Example 3, (R)-2-(3-Chloro-4-morpholin-4-yl-pyridin-2-ylmethanesulfinyl)-5-methoxy-3H-imidazo[4,5-]pyridine], for which the “Inhibition of acid secretion (%)” value is reported as greater than 50%.
